{"source": "patent US11168092B2", "about": "(priority 2019, dated 2021)", "assay_type_in_all_cases": "cell-based", "set-up_in_all_cases": "unit not given here", "key": {"[1]": {"tested_on": "colorectal cancer cells (HCT15)"}, "[2]": {"tested_on": "ovarian cancer cells (SK-OV-3)"}, "lung cancer cells (A549)": {"tested_on": "lung cancer cells (A549)"}, "[3]": {"tested_on": "skin cancer cells (SK-MEL-2)"}}, "note": "Where “and” joins values, the source holds several entries; their conditions need not be identical. Equal entries are not always repeated."}
{"smiles": "CC1=CC(=O)OCC23CCC(C)(O)C4CC5(O)C(CC(OC(=O)C=CC=CC(C(C)O)OCC1)C52C)OC43", "note": "[compound 1, (1R,4Z,6E,8R,12E,16aR,19S,20S,20aR,22R,23S,23aS)-19,23-dihydroxy-8-((R)-1-hydroxyethyl)-12,19,23a-trimethyl-10,11,17,18,19,20,20a,22,23,23a-decahydro-1H-1,22:20,23-dimethano[1,6,12]trioxacyclooctadecino[3,4-d]chromene-3,14(8H,16H)-dione]", "values": [{"measurement": "Anticancer activity (value at given concentration)", "setting": "[1]", "value": "103.41 and 91.11 and 101.55 and 101.52 and 102.70 and 101.58"}, {"measurement": "Anticancer activity (value at given concentration)", "setting": "[2]", "value": "103.77 and 87.76 and 98.54 and 100.24 and 89.90 and 95.08"}, {"measurement": "Anticancer activity (value at given concentration)", "setting": "lung cancer cells (A549)", "value": "97.91 and 93.12 and 93.03 and 94.31 and 92.44 and 95.94"}, {"measurement": "Anticancer activity (value at given concentration)", "setting": "[3]", "value": "96.98 and 91.60 and 95.73 and 101.17 and 96.51 and 96.60"}]}
